Data from patent publication US7238493B2, “Acetylation of pRb by p300 assay method for compounds which modulate this process” (The University Court of the University of Glasgow, priority 2000, dated 2007).
Entries after “also recorded” stand apart in the source; their conditions may differ.

Tested on: pRb/MDM2 complex
Assay: pRb immunoprecipitation and anti-MDM2 immunoblot from TSA-treated T98G cells
Type: cell-based
Conditions: TSA 5 μM for 18-20 h, FIG. 4g
Method: Conversely, conditions that enhance acetylation would be expected to promote the interaction of pRb with MDM2. To this end, we treated T98G cells with trichostatin A (TSA), which blocks histone deacetylase (HDAC) activity 18 and thereafter assessed the interaction between pRb and MDM2.
For immunoprecipitation of endogenous acetylated pRb, cell pellets collected from SAOS2, U2OS, T98G, A31, and HEK293 cells were lysed in IPH buffer (50 mM Tris pH 8.0, 150 mM NaCl, 0.5% NP-40, protease inhibitor cocktail (Roche), 5mM EDTA, 5 μM TSA (Sigma)). The protein concentration of the extracts was determined by Bradford assay (BioRad). Protein-A-agarose was first incubated with anti-Rb antibody IF8 and C15 for 1-2 h at 4 C. […] Proteins bound to the beads were elute with 3×SDS loading buffer and analysed by Western blotting using appropriated antibodies. […]
Domains in E1A for p300-Dependent Acetylation of pRb and Acetylated pRb Binds to MDM2. • a) In vitro acetylation assay in which Flag-tagged p3001135-2414 (0.3 μg) together with GST-pRb (2 μg) was incubated with either wild-type GST-E1A, GST-Δ36 or GST-pm928 (1 μg) as indicated. The effect of the buffer (track 5) or GST (1 μg; track 1) alone was also assessed. The quantification of the level of p300 autoacetylation (b) and pRb acetylation (c) in the presence of the E1A derivatives is shown. […]

CC(/C=C/C(=O)NO)=C\[C@@H](C)C(=O)c1ccc(N(C)C)cc1 [TSA, trichostatin A]
interaction between pRb and MDM2 (pRb/MDM2 complex in pRb immunoprecipitate): presence of MDM2 in the pRb immunocomplex; also recorded: clearly detectable; also recorded: augments the interaction between pRb and MDM2
